Experimental data from ChEMBL document CHEMBL1201862, “PubChem BioAssay data set” (2004).
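Test compounds were applied to cells in 96-well plates for 48 hours at 5 doses. Abbreviation: GI50, concentration required for 50% inhibition of growth.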 Active and inactive are the calls of the source. No stated cut-off is given here; in the data, active = GI50 up to about 1.1 µM and inactive = higher.

Assays:
Assay in all cases: DTP human tumour cell line panel, 48 h
[1] = tested on: LOX IMVI
[2] = tested on: SF-295
[3] = tested on: RPMI-8226
[4] = tested on: KM12
[5] = tested on: OVCAR-3
[6] = tested on: A498
[7] = tested on: SNB-19
[8] = tested on: HOP-62
[9] = tested on: NCI-H460
[10] = tested on: HCT-15
[11] = tested on: K562
[12] = tested on: TK-10
[13] = tested on: NCI-H522
[14] = tested on: SF-268
[15] = tested on: SN12C
[16] = tested on: NCI/ADR-RES
[17] = tested on: UACC-62
[18] = tested on: HL-60
[19] = tested on: MOLT-4

Row | SMILES | GI50 [1] | GI50 [2] | GI50 [3] | GI50 [4] | GI50 [5] | GI50 [6] | GI50 [7] | GI50 [8] | GI50 [9] | GI50 [10] | GI50 [11] | GI50 [12] | GI50 [13] | GI50 [14] | GI50 [15] | GI50 [16] | GI50 [17] | GI50 [18] | GI50 [19]
1 | NCCSc1nc(-c2ccccc2)c(-c2ccccc2)o1 | > 100 µM (inactive) | > 100 µM (inactive) | 88.3 µM (inactive) | > 100 µM (inactive) | > 100 µM (inactive) | > 100 µM (inactive) | > 100 µM (inactive) | > 100 µM (inactive) | 65.9 µM (inactive) | > 100 µM | > 100 µM (inactive) | 15.3 µM (inactive) | 29.6 µM (inactive) | > 100 µM (inactive) | 77.8 µM (inactive) | > 100 µM (inactive) | > 100 µM (inactive) | – | –
2 | O=c1c2cc(-c3ccccc3)cnc2sn1-c1ccc(Br)cc1 | – | > 100 µM (inactive) | > 100 µM (inactive) | > 100 µM (inactive) | 37 µM (inactive) | > 100 µM (inactive) | > 100 µM (inactive) | > 100 µM (inactive) | > 100 µM (inactive) | 88.9 µM | > 100 µM (inactive) | – | 47.5 µM (inactive) | > 100 µM (inactive) | > 100 µM (inactive) | > 100 µM (inactive) | > 100 µM (inactive) | > 100 µM (inactive) | > 100 µM (inactive)
3 | Nc1nc(Nc2ccccc2)sc1C(=O)c1ccco1 | 15.9 µM (inactive) | – | 16.1 µM (inactive) | 11 µM (inactive) | 5.69 µM (inactive) | 17.8 µM (inactive) | 19.9 µM (inactive) | 27.5 µM (inactive) | 12.8 µM (inactive) | 12.2 µM | 8.55 µM (inactive) | 14.2 µM (inactive) | – | 26.7 µM (inactive) | 17.7 µM (inactive) | 23.9 µM (inactive) | 20.8 µM (inactive) | 14.1 µM (inactive) | 13 µM (inactive)
4 | Cc1c(-c2ccccn2)ccc2ccccc12 | 93.3 µM (inactive) | 83.8 µM (inactive) | 19 µM (inactive) | 82.8 µM (inactive) | 41.4 µM (inactive) | > 100 µM (inactive) | > 100 µM (inactive) | > 100 µM (inactive) | 42.4 µM (inactive) | 27.7 µM | 71 µM (inactive) | 45.2 µM (inactive) | – | 54 µM (inactive) | 61.1 µM (inactive) | 45.9 µM (inactive) | 47.1 µM (inactive) | 44.6 µM (inactive) | 90.2 µM (inactive)
5 | CCN(CC)CCNc1nc2ccc([N+](=O)[O-])cc2[n+]([O-])n1 | – | 32.1 µM (inactive) | 14.7 µM (inactive) | 26.2 µM (inactive) | 30.3 µM (inactive) | 28.4 µM (inactive) | 41.4 µM (inactive) | – | 10.4 µM (inactive) | 11.5 µM | 13.2 µM (inactive) | 43.1 µM (inactive) | 28.1 µM (inactive) | 41 µM (inactive) | 19 µM (inactive) | 24.3 µM (inactive) | 16.6 µM (inactive) | 3.44 µM (inactive) | 18.9 µM (inactive)
6 | N=C(N)NCCCC(NC(=O)c1c2ccccc2nc2ccccc12)C(=O)O (configuration not stated) | > 100 µM (inactive) | > 100 µM (inactive) | > 100 µM (inactive) | > 100 µM (inactive) | > 100 µM (inactive) | > 100 µM (inactive) | > 100 µM (inactive) | > 100 µM (inactive) | > 100 µM (inactive) | > 100 µM | > 100 µM (inactive) | > 100 µM (inactive) | > 100 µM (inactive) | > 100 µM (inactive) | > 100 µM (inactive) | > 100 µM (inactive) | > 100 µM (inactive) | – | > 100 µM (inactive)
7 | COCC1OCCN1C (configuration not stated) | > 100 µM (inactive) | > 100 µM (inactive) | > 100 µM (inactive) | 88.3 µM (inactive) | > 100 µM (inactive) | > 100 µM (inactive) | > 100 µM (inactive) | > 100 µM (inactive) | > 100 µM (inactive) | > 100 µM | > 100 µM (inactive) | > 100 µM (inactive) | > 100 µM (inactive) | > 100 µM (inactive) | – | > 100 µM (inactive) | > 100 µM (inactive) | – | > 100 µM (inactive)
8 | C=CCOC(=O)Cn1cnc2c(N)ncnc21 | > 100 µM (inactive) | > 100 µM (inactive) | > 100 µM (inactive) | > 100 µM (inactive) | – | > 100 µM (inactive) | > 100 µM (inactive) | > 100 µM (inactive) | > 100 µM (inactive) | > 100 µM | > 100 µM (inactive) | > 100 µM (inactive) | – | > 100 µM (inactive) | > 100 µM (inactive) | > 100 µM (inactive) | > 100 µM (inactive) | > 100 µM (inactive) | > 100 µM (inactive)
9 | CCOC(=O)Nc1c(C#N)[n+]([O-])c2cc(Cl)c(Cl)cc2[n+]1[O-] | 6.1 µM (inactive) | 14.6 µM (inactive) | 2.15 µM (inactive) | 18.2 µM (inactive) | 20.1 µM (inactive) | 7.69 µM (inactive) | 21.7 µM (inactive) | 45.7 µM (inactive) | 13.7 µM (inactive) | 5.13 µM | 16.3 µM (inactive) | 27.5 µM (inactive) | – | 15.3 µM (inactive) | 16.4 µM (inactive) | 20.7 µM (inactive) | 10.7 µM (inactive) | – | 8.71 µM (inactive)
10 | CC(=O)OCC(OC(C)=O)C(OC(C)=O)C(OC(C)=O)C(C=NN(C(C)=O)S(=O)(=O)c1ccc(/C=C2\NC(=O)N(C)C2=O)cc1)OC(C)=O (configuration not stated) | 21.8 µM (inactive) | 95.9 µM (inactive) | 24.2 µM (inactive) | 42.4 µM (inactive) | 41.4 µM (inactive) | 59.7 µM (inactive) | 45 µM (inactive) | 85.1 µM (inactive) | 22.1 µM (inactive) | 25.4 µM | 21.4 µM (inactive) | 3.35 µM (inactive) | 23.7 µM (inactive) | 30.1 µM (inactive) | 27.8 µM (inactive) | > 100 µM (inactive) | 13.6 µM (inactive) | – | –
11 | CCOC(=O)/C(C#N)=C/c1ccc(CO)o1 | > 100 µM (inactive) | > 100 µM (inactive) | > 100 µM (inactive) | > 100 µM (inactive) | > 100 µM (inactive) | > 100 µM (inactive) | > 100 µM (inactive) | > 100 µM (inactive) | > 100 µM (inactive) | > 100 µM | > 100 µM (inactive) | > 100 µM (inactive) | > 100 µM (inactive) | > 100 µM (inactive) | > 100 µM (inactive) | > 100 µM (inactive) | > 100 µM (inactive) | – | > 100 µM (inactive)
12 | O=[N+]([O-])c1cc2c(cc1/C=N/n1c(CO)nc3ccccc31)OCO2 | > 100 µM (inactive) | > 100 µM (inactive) | > 100 µM (inactive) | > 100 µM (inactive) | > 100 µM (inactive) | > 100 µM (inactive) | > 100 µM (inactive) | > 100 µM (inactive) | > 100 µM (inactive) | > 100 µM | > 100 µM (inactive) | > 100 µM (inactive) | – | > 100 µM (inactive) | > 100 µM (inactive) | > 100 µM (inactive) | > 100 µM (inactive) | > 100 µM (inactive) | > 100 µM (inactive)
13 | COc1cccc2c(N)c3cccc(C(=O)NCCN(C)C)c3nc12 | 0.0513 µM (active) | 0.297 µM (active) | 0.221 µM (active) | 0.252 µM (active) | 0.369 µM (active) | 0.281 µM (active) | 0.134 µM (active) | 0.0578 µM (active) | – | 1.38 µM | 0.0415 µM (active) | 0.439 µM (active) | 0.0241 µM (active) | 0.0659 µM (active) | 0.0389 µM (active) | 0.979 µM (active) | 0.357 µM (active) | – | < 0.01 µM (active)
14 | CC(=O)N1CC(=O)N2C(=O)/C(=C/c3ccc(Cl)cc3)N=C12 | > 100 µM (inactive) | > 100 µM (inactive) | 50.7 µM (inactive) | > 100 µM (inactive) | > 100 µM (inactive) | > 100 µM (inactive) | > 100 µM (inactive) | > 100 µM (inactive) | > 100 µM (inactive) | > 100 µM | 49.1 µM (inactive) | > 100 µM (inactive) | – | > 100 µM (inactive) | > 100 µM (inactive) | > 100 µM (inactive) | > 100 µM (inactive) | 27.7 µM (inactive) | 48.3 µM (inactive)
15 | Nc1[nH]c(=O)[nH]c(=O)c1Cc1cccc(Cl)c1 | 54.7 µM (inactive) | > 100 µM (inactive) | 79.6 µM (inactive) | 80.5 µM (inactive) | > 100 µM (inactive) | > 100 µM (inactive) | > 100 µM (inactive) | > 100 µM (inactive) | 56.8 µM (inactive) | 84.9 µM | 63.5 µM (inactive) | 63.7 µM (inactive) | 88.9 µM (inactive) | 38.3 µM (inactive) | > 100 µM (inactive) | > 100 µM (inactive) | 34.4 µM (inactive) | – | –
16 | O=C(NCCO)Nc1c(C(F)(F)F)cc(-c2ccccc2)[nH]c1=O | > 100 µM (inactive) | > 100 µM (inactive) | > 100 µM (inactive) | > 100 µM (inactive) | > 100 µM (inactive) | > 100 µM (inactive) | > 100 µM (inactive) | > 100 µM (inactive) | > 100 µM (inactive) | > 100 µM | > 100 µM (inactive) | > 100 µM (inactive) | – | – | > 100 µM (inactive) | > 100 µM (inactive) | > 100 µM (inactive) | 19.8 µM (inactive) | > 100 µM (inactive)
